Biological target: T1, renin (Homo sapiens, UniProt P00797)
T1 sequence (P00797 67-406): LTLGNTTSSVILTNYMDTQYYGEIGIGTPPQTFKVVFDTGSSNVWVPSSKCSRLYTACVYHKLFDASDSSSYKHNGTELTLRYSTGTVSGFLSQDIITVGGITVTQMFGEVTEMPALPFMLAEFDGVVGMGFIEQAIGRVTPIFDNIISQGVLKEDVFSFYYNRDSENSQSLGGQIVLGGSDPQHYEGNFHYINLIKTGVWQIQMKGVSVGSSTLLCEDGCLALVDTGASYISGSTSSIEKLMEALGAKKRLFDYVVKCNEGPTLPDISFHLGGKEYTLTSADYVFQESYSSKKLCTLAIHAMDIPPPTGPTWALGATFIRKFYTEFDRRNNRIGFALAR
Experiment: in vitro renin inhibitory activity, radioimmunoassay for angiotensin I
Assay type: biochemical
Settings: for IC50: renin incubated two hours at 37° with angiotensinogen, values marked * are IC50, read-out: In Vitro Activity, IC50 (molar concentration causing 50% inhibition of renin activity); for inhibition at 0.01 µM: at 10^-8 molar concentration of test compound, read-out: In Vitro Activity, percent inhibition at 10^-8
Description: The effectiveness of the aforementioned compounds is determined by a test for in vitro renin inhibitory activity. This activity is determined by a standard radioimmunoassay for angiotensin I. In this assay the enzyme, renin, incubated for two hours at 37° in the presence of a substrate, angiotensinogen, generates the product, angiotensin I. Test compounds are added to the incubation mixture. Relative activity is reported as the percent inhibition at the specified molar concentration or as the IC50, which is the molar concentration of test compound causing a 50% inhibition of the renin activity.

Row | IC50 | Molecule | further results
1 | 0.0015 µM | CC(C)CC(=O)NC(Sc1ccccc1)C(=O)N[C@@H](Cc1c[nH]cn1)C(=O)N[C@@H](CC1CCCCC1)[C@@H](O)[C@@H](O)CC(C)C (some centres unmarked) [IVA-NHCH(SPh)CO--HIS--CAD, IVA-NHCH(SPh)CO-HIS-CAD] | –
2 | 0.19 µM | CC[C@H](C)CNC(=O)C[C@H](O)[C@H](CC(C)C)NC(=O)[C@H](CC(C)C)NC(=O)C(NC(=O)CC(C)C)Sc1ccccc1 (single isomer, unassigned) [IVA-NHCH(SPh)CO--LEU--STA--MBA (Mixture of diastereomers), IVA-NHCH(SPh)-CO-LEU-STA-MBA] | –
3 | 0.0035 µM | IVA-NHCH(N(CH3)Ph)CO-HIS-CAD [IVA-NHCH(N(CH3)Ph)CO--HIS--CAD] | –
4 | – | IVA-NHCH(NHPh)CO-LEU-STA-MBA [IVA-NHCH(NHPh)CO--LEU--STA--MBA] | In Vitro Activity, percent inhibition at 10^-6 (at 10^-6 molar concentration of test compound): 24%
5 | – | CC(C)CC(=O)NC(C(=O)N[C@@H](Cc1c[nH]cn1)C(=O)N[C@@H](CC1CCCCC1)[C@@H](O)[C@@H](O)CC(C)C)S(=O)(=O)C(C)C (some centres unmarked) [IVA-NHCH(SO2 CH(CH3)2)CO--HIS--CAD, IVA-NHCH(SO2 CH(CH3)2)CO-HIS-CAD] | inhibition at 0.01 µM: 8.2%
6 | – | CC(C)CC(=O)NC(SC(C)C)C(=O)N[C@@H](Cc1c[nH]cn1)C(=O)N[C@@H](CC1CCCCC1)[C@@H](O)[C@@H](O)CC(C)C (single isomer, unassigned) [IVA-NHCH(SCH(CH3)2)CO--HIS--CAD (Isomer A), IVA-NHCH(SCH(CH3)2)CO-HIS-CAD (Isomer A)] | inhibition at 0.01 µM: 10.5%
7 | 0.0057 µM | IVA-NHCH-(SCH(CH3)2)CO-HIS-CAD (Isomer B) [IVA-NHCH(SCH(CH3)2)CO--HIS--CAD (Isomer B)] | –
8 | 0.013 µM | IVA-NHCH(NHPh)CO-HIS-CAD [IVA-NHCH(NHPh)CO--HIS--CAD] | –
9 | – | CC[C@H](C)CNC(=O)C[C@H](O)[C@H](CC(C)C)NC(=O)[C@H](CC(C)C)NC(=O)C(NC(=O)OC(C)(C)C)SC(C)C (some centres unmarked) [BOC--NHCH(SCH(CH3)2)CO--LEU--STA--MBA, BOC-NHCH(SCH-(CH3)2)CO-LEU-STA-MBA] | inhibition at 1 µM (at 10^-6 molar concentration of test compound, read-out: In Vitro Activity, percent inhibition at 10^-6): 23%
10 | 0.14 µM | CC[C@H](C)CNC(=O)C[C@H](O)[C@H](CC(C)C)NC(=O)[C@H](CC(C)C)NC(=O)C(NC(=O)CC(C)C)Sc1ccccc1 (single isomer, unassigned) [IVA-NHCH(SPh)CO--LEU--STA--MBA (Isomer A), IVA-NHCH(SPh)-CO-LEU-STA-MBA] | –
11 | 3 µM | IVA-NHCH-(OPh)CO-HIS-CAD [IVA-NHCH(OPh)CO--HIS--CAD] | –

Reference: US5221667A, “Renin inhibiting peptides having an α-heteroatom amino acid at the P3 position” (Warner-Lambert Company, priority 1990, dated 1993)
